From publication PMC9492542, “Brain-restricted mTOR inhibition with binary pharmacology” (Nature, 2022)
Values joined by “and” are separate entries in the source; they are usually repeats but may differ in a detail not shown here. Equal values may be shown once.

Columns and labels:
[1] = tested on: human PBMCs; experiment: IL-2 secretion of stimulated PBMCs (sandwich ELISA); format: cell-based; set-up: unit not given here
[2] = tested on: human PBMCs; experiment: Proliferation of anti-CD3/anti-CD28 stimulated PBMCs (120 h); format: cell-based; set-up: PBMC cell proliferation: unit not given here
[3] = biological target: MTORC1; settings: read-out: Kd4 (drug binding to MTORC1 without FKBP); ref Banaszynski et al, PMID 15796538; cited from earlier work
[4] = Cellular activity of FKBP-binding bifunctional kinase inhibitors, with or without RapaBlock; format: cell-based
[5] = 0.005081 nM Rapamycin, +10 µM RapaBlock
[6] = 0.005081 nM Rapamycin, No RapaBlock
[7] = 0.015242 nM Rapamycin, +10 µM RapaBlock
[8] = 0.015242 nM Rapamycin, No RapaBlock
[9] = 0.045725 nM Rapamycin, +10 µM RapaBlock
[10] = 0.045725 nM Rapamycin, No RapaBlock
[11] = 0.137174 nM Rapamycin, No RapaBlock
[12] = 0.411523 nM Rapamycin, +10 µM RapaBlock
[13] = 0.411523 nM Rapamycin, No RapaBlock
[14] = 1.23457 nM Rapamycin, No RapaBlock
[15] = 3.7037 nM Rapamycin, +10 µM RapaBlock
[16] = 3.7037 nM Rapamycin, No RapaBlock
[17] = 11.1111 nM Rapamycin, +10 μM RapaBlock
[18] = 11.1111 nM Rapamycin, No RapaBlock
[19] = 33.3333 nM Rapamycin, +10 μM RapaBlock
[20] = 33.3333 nM Rapamycin, No RapaBlock
[21] = 100 nM Rapamycin, +10 μM RapaBlock

With `CO[C@H]1C[C@@H]2CC[C@@H](C)[C@@](O)(O2)C(=O)C(=O)N2CCCC[C@H]2C(=O)O[C@H]([C@H](C)C[C@@H]2CC[C@@H](O)[C@H](OC)C2)CC(=O)[C@H](C)/C=C(\C)[C@@H](O)[C@@H](OC)C(=O)[C@H](C)C[C@H](C)/C=C/C=C/C=C/1C` [Rapamycin] the IL-2 secretion [1, 5] was 3684.01 and 3841.04 and 3311.59, the IL-2 secretion [1, 6] was 3505.26 and 3941.8 and 3950.69 and the IL-2 secretion [1, 7] was 3960.64 and 4023.71 and 3669.35. The IL-2 secretion [1, 8] was 3568.59 and 3802.04 and 3829, the IL-2 secretion [1, 9] was 3856.22 and 4056.95 and 3791.84 and the IL-2 secretion [1, 10] was 3351.9 and 3536.4 and 3552.37. For the same compound, the IL-2 secretion ([1]; 0.137174 nM Rapamycin, +10 µM RapaBlock) was 4033.13 and 3577.76 and 4020.83, the IL-2 secretion [1, 11] was 2937.87 and 3159.28 and 3403.45 and the IL-2 secretion [1, 12] was 4004.34 and 3499.5 and 3861.19. The IL-2 secretion [1, 13] was 2246.17 and 2618.32 and 2523.84, the IL-2 secretion ([1]; 1.23457 nM Rapamycin, +10 µM RapaBlock) was 4301.65 and 4395.86 and 4103.8 and the IL-2 secretion [1, 14] was 1538.76 and 1946.24 and 1803.35. For the same compound, the IL-2 secretion [1, 15] was 4066.89 and 3684.01 and 4230.73, the IL-2 secretion [1, 16] was 1476.21 and 1624.34 and 1751.53 and the IL-2 secretion [1, 17] was 4063.23 and 3946.51 and 4144.88. For the same compound, the IL-2 secretion [1, 18] was 1251.92 and 1234.65 and 1398.74, the IL-2 secretion [1, 19] was 4013.77 and 3518.61 and 4247.74 and the IL-2 secretion [1, 20] was 908.82 and 1132.58 and 1090.71. For the same compound, the IL-2 secretion [1, 21] was 4023.19 and 3609.68 and 3592.67, the IL-2 secretion ([1]; 100 nM Rapamycin, No RapaBlock) was 580.372 and 339.335 and 575.923 and the PBMC cell proliferation [2, 5] was 90.8. For the same compound, the PBMC cell proliferation [2, 6] was 89.3 and 86.4 and 86.7, the PBMC cell proliferation [2, 7] was 94.6 and the PBMC cell proliferation [2, 8] was 70.2 and 84.2 and 80.1. For the same compound, the PBMC cell proliferation [2, 9] was 99.9, the PBMC cell proliferation [2, 10] was 58.9 and 71.7 and 68.2 and the PBMC cell proliferation [2, 11] was 55.1 and 66 and 63.4. For the same compound, the PBMC cell proliferation [2, 12] was 100.4, the PBMC cell proliferation [2, 13] was 48.5 and 57.3 and 55.8 and the PBMC cell proliferation [2, 14] was 43.2 and 50.6 and 45.3. For the same compound, the PBMC cell proliferation [2, 15] was 92 and 97.7, the PBMC cell proliferation [2, 16] was 44.5 and 45.4 and 43.4 and the PBMC cell proliferation [2, 17] was 99 and 90.8 and 96.3. For the same compound, the PBMC cell proliferation [2, 18] was 42 and 45.8 and 42.6, the PBMC cell proliferation [2, 19] was 96.2 and 95.1 and 85.5 and the PBMC cell proliferation [2, 20] was 41.2 and 44.7 and 42.3. The PBMC cell proliferation [2, 21] was 73.2 and 69.6 and 68.3, the PBMC cell proliferation ([2]; 100 nM Rapamycin, No RapaBlock) was 32 and 34 and 31.5 and the Kd [3] was 26 µM.
With `CCC(C)(C)C(=O)C(=O)N1CCCC[C@H]1C(=O)O[C@H](CCc1ccc(OC)c(OC)c1)c1cccc(NC(=O)CCC(=O)N2CCN(c3cc(Nc4ncc(C(=O)Nc5c(C)cccc5Cl)s4)nc(C)n3)CC2)c1` [SLF-Dasatinib] the “kinase inhibitor activity in cells” value [4] was “did not have kinase inhibitor activity in cells”.
